The test relates to prophage regions DVU0189-DVU0221 and DVU2847-DVU2879. The test is described as follows: normalized gene expression (FPKM) of two prophage regions in planktonic and biofilm samples. The test is classed as cell-based, Desulfovibrio vulgaris. Particulars: biofilm controlled via indole, FIG. 1. The source says: Overexpression of prophages is observed in biofilm samples when compared to planktonic samples.

For 1 compound, phage genes expression results are on record in patent US20180051309A1, “METHODS TO ASSESS MONITOR AND CONTROL BACTERIAL BIOFILMS” (ExxonMobil Research and Engineering Company, priority 2016, published 2018).

On to `c1ccc2[nH]ccc2c1` [indole], for which the phage genes expression entry is recorded as “repressed phage genes expression”.
